Tests used:
miR-135b = assay: Real time PCR of miR-135b in raphe nucleus after antidepressant treatment; settings: mice, 20 mg/kg i.p., acute or chronic administration
miR-135a = assay: Real time PCR of miR-135a in raphe nucleus after antidepressant treatment; assay type: in vivo, mouse; settings: mice, 20 mg/kg i.p., acute or chronic administration
Description: Mice received i.p. injection of tricyclic-Imipramine, or SSRI-Fluoxetine, or NRI-Reboxetine (20 mg/kg in saline) or saline.
Blunted 14G syringes were used to extract the RN region from 3 mm slices removed from the matrix.
(§1) For behavioral testing, mice were injected with 20 mg/kg SSRI i.p. 30 minutes prior to the test.
Samples were then analyzed using SYBR® Green

mice [1] = assay: Social avoidance test after chronic social defeat; assay type: in vivo, mouse; settings: mice exposed to social defeat, chronic treatment vs saline
Description: Mice were subjected to a social defeat protocol as previously described (Elliott et al., 2010). Briefly, mice were placed in a home cage of an aggressive ICR mouse where they physically interacted for five minutes. […] Perforated clear Plexiglas dividers were then placed between the animals and the mice remained in the same cage for 24 hours to allow sensory contact. The procedure was then repeated with an unfamiliar ICR mouse for 10 consecutive days.
as §1
Social avoidance test: In the social avoidance test, mice were placed in a 15 cm×35 cm arena with a small 15 cm×8 cm neighboring chamber separated by a divider with small open slits allowing full sensory contact. The tested mice were allowed to habituate to the arena for three minutes, and then an unfamiliar ICR mouse was placed in the neighboring chamber for another three minutes. Time spent near the divider was quantified using video tracking by Ethovision software (Noldus, Wageningen, Netherlands). Interaction ratio was calculated by dividing the time the mice spent in a defined area near the unfamiliar ICR to the time the mice spent in the same area during habitation, and multiplied by 100.

mice [2] = assay: Tail suspension test; assay type: in vivo, mouse; settings: miR135b KD and control KD mice
Description: The tail suspension test was performed in the TSE Tail Suspension Monitor (TSE Systems, Bad Homburg, Germany). Each mouse was taped by the tip of its tail, and suspended from the force sensor for 10 minutes. Time spent immobile and time spent struggling were calculated and recorded by the software based on pre-set thresholds.

Slc6a4 3′UTR = assay: Luciferase reporter assay, Slc6a4 3′UTR; assay type: cell-based, mouse; settings: HEK293T cells, miR over-expressing vector vs empty vector
Description: (§2) 3′UTR sequences of Slc6a4, Htr1a, MaoA and Tph2 were PCR amplified from mouse genomic DNA, or total brain cDNA. 3′UTR PCR fragments were ligated into pGEM-T easy vector (Promega) according to the manufacturer's guidelines, and further subcloned into a single NotI site at the 3′ end of luciferase in the Psicheck2 reporter plasmid (Promega). […] Cloning orientation was verified by diagnostic cuts and by sequencing.
(§3) HEK293T cells were grown on poly-L-lysine in 48-well format to a 70-85% confluence and transfected using Polyethyleneimine with the following plasmids: 5 ng of Psicheck2-3′UTR plasmid and 215 ng of over-expressing vector for a specific miRNA, or empty-miR-vec over-expression plasmids. 24 hours following transfection cells were lysed and luciferase reporters activity were assayed as previously described [Chen A. et al. Mol Endocrinol (2005) 19: 441-58]. Renilla luciferase values were normalized to control firefly luciferase levels (transcribed from the same vector but not affected by 3′UTR tested) and averaged across six well repetitions per condition.
3′ UTRs sequences of Slc6a4 and Htr1a were PCR amplified from mouse genomic DNA. 3′UTRs PCR fragments were ligated into pGEM-T easy vector (Promega) according to the manufacturer's guidelines, and further sub-cloned into a single NotI site at the 3′ end of luciferase in the psiCHECK-2 reporter plasmid (Promega). […]

Htr1a 3′UTR = assay: Luciferase reporter assay, Htr1a 3′UTR; assay type: cell-based, mouse; settings: for repression of Htr1a 3′UTR (luciferase): HEK293T cells, miR over-expressing vector vs empty vector; for seed match through which Htr1a 3′UTR is repressed: Htr1a miR-135 seed matches mutated individually or both
Description: as §2, §3
3′UTR sequence of Htr1a was PCR amplified from mouse genomic DNA. 3′UTR PCR fragments were ligated into pGEM-T easy vector (Promega) according to the manufacturer's guidelines, and further subcloned into a single NotI site at the 3′ end of luciferase in the Psicheck2 reporter plasmid (Promega). Cloning orientation was verified by diagnostic cuts and by sequencing.
as §3, with “plasmids:” for “plasmids: 5 ng of”, “Psicheck2-3′UTR plasmid, pre-mmu-miR-182 over-expression in pEGFP” for “Psicheck2-3′UTR”, “plasmid” for “plasmid and 215 ng of over-expressing vector for a specific miRNA,”, “pEGFP plasmid alone (clontech).” for “empty-miR-vec over-expression plasmids.”
3′ UTRs sequences of Slc6a4 and Htr1a were PCR amplified from mouse genomic DNA. 3′UTRs PCR fragments were ligated into pGEM-T easy vector (Promega) according to the manufacturer's guidelines, and further sub-cloned into a single NotI site at the 3′ end of luciferase in the psiCHECK-2 reporter plasmid (Promega). […] Cloning orientation was verified by diagnostic cuts and sequencing.
Twenty-four hours following transfection cells were lysed and luciferase reporter activities were assayed as previously described (Kuperman et al., 2011). […]

miR-19a/b = miR-19a/b levels in prefrontal cortex after Reboxetine; assay type: in vivo, mouse; settings: mice
Source text: These animals will be also tested for anxiety like behavior, locomotor activity and memory performance. Furthermore, the levels of expression of miR-19a and miR-19b are examined in different regions of interest (E.G the hippocampus, amygdala and forebrain) following an acute and chronic systemic treatment with the Noradrenaline reuptake inhibitor Reboxetine in WT mice.
The physiological link between miRNA-19 and Adrb1 was studied by assessing the level of miR-19a/b in the prefrontal cortex (PFC) of mice that were injected with Reboxetine, a noradrenalin reuptake inhibitor (NRI), either acutely or chronically (FIGS. 12A-D).

CN(C)CCCN1c2ccccc2CCc2ccccc21 [Imipramine]
miR-135b expression levels in the RN (miR-135b): increased | miR-135a expression levels in the RN (miR-135a; 20 mg/kg): increased | miR-135a expression levels in the RN (miR-135a; listed as imipramine, 20 mg/kg): significantly increased | social avoidance (interaction ratio) (mice [1]): not those who received imipramine developed social avoidance

CNCCC(Oc1ccc(C(F)(F)F)cc1)c1ccccc1 (stereo not drawn) [Fluoxetine]
miR-135a expression levels in the RN (miR-135a): robust increase | immobility time, tail suspension test, treated vs basal (mice [2]): decrease in immobility time

miR-135a: mature miR-135a, Accession No. MIMAT0000428 (SEQ ID NO: 61); tested via overexpressing vector (SEQ ID NO: 210) (UAUGGCUUUUUAUUCCUAUGUGA; listed as Homo sapiens)
repression of Slc6a4 3′UTR (luciferase) (Slc6a4 3′UTR): approximately 30% | repression of Htr1a 3′UTR (luciferase) (Htr1a 3′UTR): approximately 30% | seed match through which Htr1a 3′UTR is repressed (Htr1a 3′UTR): via the distal and not the proximal seed match

miR-135b: mature miR-135b, Accession No. MIMAT0000758 (SEQ ID NO: 62); tested via overexpressing vector (SEQ ID NO: 211) (UAUGGCUUUUCAUUCCUAUGUGA; listed as Homo sapiens)
repression of Slc6a4 3′UTR (luciferase) (Slc6a4 3′UTR): approximately 50% | repression of Htr1a 3′UTR (luciferase) (Htr1a 3′UTR): approximately 50% | seed match through which Htr1a 3′UTR is repressed (Htr1a 3′UTR): via both predicted sites

CCOc1ccccc1OC(c1ccccc1)C1CNCCO1 (stereo not drawn) [Reboxetine]
miR-19 a/b levels in the PFC, acute administration (miR-19a/b; acute): down regulated | miR-19 a/b levels in the PFC, chronic administration (miR-19a/b; chronic): upregulated | miR-135a expression levels in the RN (miR-135a): no differences
